# Results reported in US9073954B2, “5-substituted benzimidazolium compounds” (Boehringer Ingelheim International GmbH, priority 2013, dated 2015).
# Where two headings read alike, the source gives them in different places.
# Columns and labels:
# [1] = target: T1, ENaC (Epithelial Sodium Channel) (Mus musculus, UniProt Q61180+Q9WU38+Q9WU39); assay: Ussing chamber: short circuit current in M-1 cells; assay type: cell-based
# T1 construct: Mouse kidney M-1 cells were cultivated in DMEM; endogenous in cells; host or cells: mouse kidney M-1 cells
# T1 sequence (Q61180 1-699): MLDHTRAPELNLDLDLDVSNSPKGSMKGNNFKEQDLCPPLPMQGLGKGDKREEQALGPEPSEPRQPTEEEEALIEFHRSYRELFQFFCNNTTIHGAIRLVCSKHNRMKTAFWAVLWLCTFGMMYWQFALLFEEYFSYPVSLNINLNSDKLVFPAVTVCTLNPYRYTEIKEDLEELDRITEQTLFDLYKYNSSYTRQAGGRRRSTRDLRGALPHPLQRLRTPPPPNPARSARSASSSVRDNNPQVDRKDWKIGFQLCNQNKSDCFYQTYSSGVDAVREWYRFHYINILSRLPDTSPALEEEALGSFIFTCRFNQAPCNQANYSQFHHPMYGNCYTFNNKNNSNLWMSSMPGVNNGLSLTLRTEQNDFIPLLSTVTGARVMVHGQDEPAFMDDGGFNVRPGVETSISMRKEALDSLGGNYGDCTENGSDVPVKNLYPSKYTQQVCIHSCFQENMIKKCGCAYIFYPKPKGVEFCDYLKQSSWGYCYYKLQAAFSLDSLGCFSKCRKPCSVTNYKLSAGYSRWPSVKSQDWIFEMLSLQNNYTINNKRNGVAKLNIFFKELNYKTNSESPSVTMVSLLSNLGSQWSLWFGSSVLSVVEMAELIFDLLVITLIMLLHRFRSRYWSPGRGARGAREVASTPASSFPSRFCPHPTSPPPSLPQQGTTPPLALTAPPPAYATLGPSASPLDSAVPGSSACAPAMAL
# T1 sequence (Q9WU38 1-638): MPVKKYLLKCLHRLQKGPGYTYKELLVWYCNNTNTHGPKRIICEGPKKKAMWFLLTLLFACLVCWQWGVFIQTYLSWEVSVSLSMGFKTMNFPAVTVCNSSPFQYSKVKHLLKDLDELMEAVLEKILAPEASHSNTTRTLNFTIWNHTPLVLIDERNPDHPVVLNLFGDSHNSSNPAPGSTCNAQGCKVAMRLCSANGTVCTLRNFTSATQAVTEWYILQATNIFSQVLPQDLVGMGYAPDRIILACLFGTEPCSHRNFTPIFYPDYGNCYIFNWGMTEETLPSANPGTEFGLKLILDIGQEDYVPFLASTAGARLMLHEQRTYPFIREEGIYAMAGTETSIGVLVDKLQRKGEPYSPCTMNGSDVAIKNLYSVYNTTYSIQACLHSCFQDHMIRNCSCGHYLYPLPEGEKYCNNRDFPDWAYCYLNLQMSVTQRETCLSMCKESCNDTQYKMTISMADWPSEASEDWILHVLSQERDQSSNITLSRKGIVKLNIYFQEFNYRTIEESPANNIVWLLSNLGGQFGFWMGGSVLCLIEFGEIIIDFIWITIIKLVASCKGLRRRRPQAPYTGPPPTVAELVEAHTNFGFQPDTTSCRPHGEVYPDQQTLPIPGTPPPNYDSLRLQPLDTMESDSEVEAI
# T1 sequence (Q9WU39 1-655): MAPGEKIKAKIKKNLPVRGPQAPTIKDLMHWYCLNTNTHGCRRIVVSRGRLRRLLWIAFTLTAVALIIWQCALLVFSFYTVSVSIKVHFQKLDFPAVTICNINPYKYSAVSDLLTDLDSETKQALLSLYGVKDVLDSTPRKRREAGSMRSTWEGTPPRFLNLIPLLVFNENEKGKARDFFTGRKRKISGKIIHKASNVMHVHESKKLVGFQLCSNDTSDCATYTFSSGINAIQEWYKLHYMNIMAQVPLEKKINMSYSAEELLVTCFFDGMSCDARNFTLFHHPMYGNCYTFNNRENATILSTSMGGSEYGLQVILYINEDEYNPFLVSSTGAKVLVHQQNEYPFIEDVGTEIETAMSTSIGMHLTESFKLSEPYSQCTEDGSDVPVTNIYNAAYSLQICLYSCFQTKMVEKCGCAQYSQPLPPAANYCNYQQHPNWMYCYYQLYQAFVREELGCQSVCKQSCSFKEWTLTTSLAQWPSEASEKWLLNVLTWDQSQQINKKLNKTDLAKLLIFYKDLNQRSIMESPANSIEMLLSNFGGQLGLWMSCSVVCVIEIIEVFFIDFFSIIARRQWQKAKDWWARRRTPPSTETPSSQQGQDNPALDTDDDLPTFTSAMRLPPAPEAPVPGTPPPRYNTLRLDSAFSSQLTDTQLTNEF
# Procedure: Mouse kidney M-1 cells were cultivated in DMEM containing 5% FCS and 5 μM dexamethasone for 10 to 12 days on polyester transwell filters. Filters were inserted into a teflon-coated well-plate which fit into the ussing chamber system. Prior to measurement the medium of M-1 cells was replaced with Caco-2 transport buffer (Invitrogen, Germany). During measurements, the Ussing chamber temperature was kept at 37° C. Short circuit currents (I_sc) were measured in the voltage-clamp mode with the software package Lab View for data acquisition and analysis. The transepithelial electrical resistance (TEER) was determined by the application of voltage steps of ±5 mV every 5 sec. Compounds were administered at a final concentration of 3 μM or at increasing concentrations (1-3-10 μM) to the apical solution. At the end of each experiment the amiloride sensitive I_SC was measured by adding 3 μM amiloride to the apical compartment. Results are expressed as inhibition in percent of the amiloride effect or as IC50.
# With the example compounds given above, the following IC50 values were determined in the Ussing Chamber assay: […]
# [2] = Permeability in CALU-3 cells; assay type: in vitro ADME; conditions: human, CALU-3 monolayers, 10 μM compound, pH 7.4, 37° C.; for Papp A→B at 90 min, 10 μM: apical-to-basal; for Papp B→A at 90 min, 10 μM: basal-to-apical
# Procedure: Permeability in CALU-3 Cells:
# Permeability measurements across polarized, confluent CALU-3 cell monolayers grown on permeable filter supports are used to provide information on the potential of a compound to pass the lung epithelium. Apparent permeability coefficients (Papp) of the compounds across the CALU-3 cell monolayers are measured (pH 7.4, 37° C.) in apical-to-basal (AB) and basal-toapical (BA) transport direction.
# CALU-3 cells (1-2×10^5 cells/1 cm^2 area) are seeded on filter inserts (Costar transwell polycarbonate filters, 0.4 μm pore size) and cultured (for 10-12 days DMEM) until tight monolayers are formed. Compounds of interest are dissolved in appropriate solvent (DMSO, 10 mM stock solution). Stock solutions are diluted with HTP-4 buffer (128.13 mM NaCl, 5.36 mM KC, 1 mM MgSO4, 1.8 mM CaCl2, 4.17 mM NaHCO3, 1.19 mM Na2HPO4×7H2O, 0.41 mM NaH2PO4xH2O, 15 mM HEPES, 20 mM glucose, 0.25% BSA, pH 7.4) to prepare the transport solutions (10 μM compound, final DMSO<=0.5%). The transport solution (TL) is applied to the apical or basolateral donor side for measuring A-B or B-A permeability (3 filter replicates), respectively. The receiver side contains the same buffer as the donor side. After 30 min of accommodation, samples are collected at the start t0=0 min and at the end of the experiment tn=90 min from the donor and at 0, 30, 60, and 90 min also from the receiver chamber. Volume removed is replenished by HTP-4 buffer. The compound concentration in the samples is measured by HPLC-MS/MS or scintillation counting. The permeability coefficient (Papp) and efflux ratio are calculated according to: Papp [cm/s]=(concentration receiver [nM]*volume receiver [mL]/time interval [sec])*(1/filter area)*(1/donor concentration [nM])
# With example compounds given above, the following permeability values were determined in the CALU-3 cells assay: […]
# [3] = Ussing chamber, mouse kidney M-1 cells, amiloride sensitive I_SC, apical application, 37° C., read-out: IC50
Structure (SMILES),"IC50 [1, 3]",other results
CCOP(=O)([O-])CCCOc1ccc2c(c1)n(CC)c(CNC(=O)c1nc(Cl)c(N)nc1N)[n+]2CCOC [Example 1.1],11 nM,"Papp A→B at 90 min, 10 μM [2]: 0.1 ×10⁻⁶ cm/s; Papp B→A at 90 min, 10 μM [2]: 0.03 ×10⁻⁶ cm/s"
CCn1c(CNC(=O)c2nc(Cl)c(N)nc2N)[n+](CC)c2cc(Cl)c(O[C@H]3CO[C@H]4[C@@H]3OC[C@@H]4O)cc21 [Example 1.5],1 nM,"Papp A→B at 90 min, 10 μM [2]: 0.3 ×10⁻⁶ cm/s; Papp B→A at 90 min, 10 μM [2]: 0.1 ×10⁻⁶ cm/s"
CCNC(=O)COc1ccc2c(c1)n(CC)c(CNC(=O)c1nc(Cl)c(N)nc1N)[n+]2CC [Example 3.14],0.3 nM,
CCn1c(CNC(=O)c2nc(Cl)c(N)nc2N)[n+](CC)c2cc(F)c(C(=O)N3CCOCC3)cc21 [Example 3.12],0.4 nM,"Papp A→B at 90 min, 10 μM [2]: 0.1 ×10⁻⁶ cm/s; Papp B→A at 90 min, 10 μM [2]: 0.2 ×10⁻⁶ cm/s"
CCn1c(CNC(=O)c2nc(Cl)c(N)nc2N)[n+](CC)c2ccc(O[C@H](C)C(=O)N3CCNC(=O)C3)cc21 [Example 3.3],1 nM,
CCn1c(CNC(=O)c2nc(Cl)c(N)nc2N)[n+](CC)c2ccc(OCCNC(=O)OC(C)(C)C)cc21 [Example 1.4],0.4 nM,
CCn1c(CNC(=O)c2nc(Cl)c(N)nc2N)[n+](CC)c2cc(Cl)c(N(CCO)CCO)cc21 [Example 1.3],2 nM,
CCn1c(CNC(=O)c2nc(Cl)c(N)nc2N)[n+](CC)c2ccc(O)cc21 [Example 3.10],0.2 nM,
CCNC(=O)c1cc2c(cc1OCC(=O)N1CCNCC1)n(CC)c(CNC(=O)c1nc(Cl)c(N)nc1N)[n+]2CC [Example 6.3],4 nM,
CCn1c(CNC(=O)c2nc(Cl)c(N)nc2N)[n+](CC)c2ccc(OCCN)cc21 [Example 6.2],1 nM,
CCn1c(CNC(=O)c2nc(Cl)c(N)nc2N)[n+](CC)c2ccc(CNC(=O)CN(C)C)cc21.[Cl-] [Example 7.1],2 nM,"Papp A→B at 90 min, 10 μM [2]: < 0.9 ×10⁻⁶ cm/s; Papp B→A at 90 min, 10 μM [2]: 0.2 ×10⁻⁶ cm/s"
CCn1c(CNC(=O)c2nc(Cl)c(N)nc2N)[n+](C)c2ccc(O)cc21 [Example 3.9],1 nM,
CCNC(=O)COc1ccc2c(c1)n(C(C)C)c(CNC(=O)c1nc(Cl)c(N)nc1N)[n+]2CC [Example 3.4],1 nM,
CCOP(=O)(CCCOc1ccc2c(c1)n(CC)c(CNC(=O)c1nc(Cl)c(N)nc1N)[n+]2CCOC)OCC [Example 3.13],,IC50 [1]: 2 nM
CCNC(=O)[C@@H](C)Oc1ccc2c(c1)n(CC)c(CNC(=O)c1nc(Cl)c(N)nc1N)[n+]2CC [Example 3.5],0.5 nM,"Papp A→B at 90 min, 10 μM [2]: 1 ×10⁻⁶ cm/s; Papp B→A at 90 min, 10 μM [2]: 0.4 ×10⁻⁶ cm/s"
CCn1c(CNC(=O)c2nc(Cl)c(N)nc2N)[n+](CC)c2ccc(C[N+](C)(C)C)cc21 [Example 8.3],2 nM,
CCn1c(CNC(=O)c2nc(Cl)c(N)nc2N)[n+](CC)c2ccc(OCCNCC(=O)OC)cc21 [Example 9.1],2 nM,
CCn1c(CNC(=O)c2nc(Cl)c(N)nc2N)[n+](CC)c2ccc(OCCNC(=N)N)cc21 [Example 10.1],0.3 nM,
CCn1c(CNC(=O)c2nc(Cl)c(N)nc2N)[n+](CC)c2ccc(OCCNC(=O)C[N+](C)(C)C)cc21 [Example 8.1],0.4 nM,
CCn1c(CNC(=O)c2nc(Cl)c(N)nc2N)[n+](CC)c2ccc(CNC(=O)OCC3c4ccccc4-c4ccccc43)cc21 [Example 1.2],9 nM,
CCNC(=O)[C@H](C)Oc1ccc2c(c1)n(CC)c(CNC(=O)c1nc(Cl)c(N)nc1N)[n+]2CC [Example 3.6],1 nM,
CC[n+]1c(CNC(=O)c2nc(Cl)c(N)nc2N)n(CCCCCO)c2cc(O)ccc21 [Example 3.7],,"Papp A→B at 90 min, 10 μM [2]: 0.7 ×10⁻⁶ cm/s; Papp B→A at 90 min, 10 μM [2]: 0.3 ×10⁻⁶ cm/s"
CCn1c(CNC(=O)c2nc(Cl)c(N)nc2N)[n+](CC)c2ccc(CN)cc21 [Example 6.1],1 nM,
CCOP(=O)(CCCOc1ccc2c(c1)n(CC)c(CNC(=O)c1nc(Cl)c(N)nc1N)[n+]2CC)OCC [Example 3.1],3 nM,
CCn1c(CNC(=O)c2nc(Cl)c(N)nc2N)[n+](CC)c2ccc(O[C@@H]3CO[C@H]4[C@@H]3OC[C@H]4O)cc21 [Example 3.15],3 nM,
CCn1c(CNC(=O)c2nc(Cl)c(N)nc2N)[n+](CC)c2cc(Cl)c(OCCOCCOC)cc21 [Example 3.2],0.5 nM,
CCn1c(CNC(=O)c2nc(Cl)c(N)nc2N)[n+](CC)c2ccc(CNC(=O)C[N+](C)(C)C)cc21 [Example 8.2],5 nM,
CCn1c(CNC(=O)c2nc(Cl)c(N)nc2N)[n+](CC)c2ccc(CNC(=O)COc3cc(C(=O)N[C@H]4CC[C@H](N(C)C)CC4)cc(C(=O)N[C@H]4CC[C@H](N(C)C)CC4)c3)cc21 [Example 11.1],2 nM,
CCn1c(CNC(=O)c2nc(Cl)c(N)nc2N)[n+](CC)c2ccc(OCCNCC(=O)[O-])cc21 [Example 5.1],5 nM,
CCn1c(CNC(=O)c2nc(Cl)c(N)nc2N)[n+](CC)c2ccc(OCCCP(=O)([O-])O)cc21 [Example 4.1],11 nM,
